Measured values taken from patent US9511196B2, “Systems and methods for promoting wound healing” (priority 2009, dated 2016).
Where two headings read alike, the source gives them in different places.

Key:
2nd degree burn wounds = assay: Burn wound model: change in burn wound area after gas treatment; type: in vivo, rat; conditions: 1000 ppm NO or 250 ppm CO, 15 minutes four times per day; for effect on burn healing compared to untreated burn wound: 10 days
Protocol: Similar to the rats used for the type I diabetic model, Rats were anesthetized with the mixture of ketamine 50 mg/kg IM and xylazine 5 mg/kg IM administered intraperitoneally. Anesthesia levels were maintained by additional injections of this mixture as needed. Each rat was allowed to breathe spontaneously. Hair was removed from the rats' backs and the backs of the rat were subsequently wiped with 70% ethanol. The standard rat burn model was used in which burns are produced by hot metal used as a heat source. A customized soldering iron was used to cause superficial dermal second-degree burns on. the backs of the rats. […] It was heated to 80° C. and applied to the skin for 10 seconds, which caused second degree burns. Immediately after wounding, the gasket of an exemplary gas delivery system as disclosed herein was bonded to the skin area surrounding each treated wound by means of a thin layer of Skin-Bond® Cement (Smith & Nephew Inc. Largo, Fla. 33773). The animals were then transferred to individual cages for recovery. Rats received an analgesic (Butorphanol 1-2 mg/kg) injected subcutaneously every four hours for a maximum period of 2 days. To prevent dehydration, 1-2 ml of warm sterile saline/100 g of body weight was injected subcutaneously during the recovery period. The treatment procedures described in more detail below were executed in the same way for the burn wound model as the diabetic wound model. After a certain time period, the rats were again anesthetized using the procedure described above and the wounded skin was taken from the backs of these rats for analysis. Then rats were then euthanized with pentothal (150 mg/kg) injected intraperitoneally.
(§1) All gas mixtures were prepared and stored in HandyGrab Tedlar gas sampling bag with capacity of 0.6 liter (Zefon International, St. Petersburg, Fla., cat#HG-PP-06) prior to each treatment. Static mixing with nitrogen as a diluting gas was performed. To prepare nitric oxide mixtures in nitrogen, a sample of 1000 ppm nitric oxide in nitrogen (Airgas Specialty Gases, Chicago, Ill.) was drawn with a 50 cubic centimeters (cc) disposable medical syringe and then transferred to a Tedlar bag through an injection port. Then the appropriate volume of nitrogen (Airgas Inc., Radur, Pa.) was delivered to the bag that was controlled by a Riteflow® flowmeter (Bel-Art Products, Pequannock, N.J.). The same technique was used to prepare carbon monoxide mixtures in nitrogen, but a 1 cc disposable medical syringe was used to dosage pure carbon monoxide (Air Products and Chemicals Inc., Parkersburg, W. Va.). To calculate the concentrations of mixed gases, the following Equation 2 was applied: Cppm=Vc/(Vc+Vd)×10^6·ppm (2) where Vc is the target gas volume and Vd is the dilutant volume.
Once the rats were prepared with a modified gas delivery system in place, 20 cm^3 of nitrogen was purged through whole gas capsule to remove air. Then 20 cm^3 of a therapeutic gas mixture was delivered in a medical syringe to a gas vent, and the gas vent was sealed. The wounds were exposed to gas mixtures for specified period of times (15 minutes to 1 hour). The treatment was repeated four times a day, while the rat was awake and fully ambulatory. Negative control wounds remained uncovered, allowing access of air to the wound site. Positive control wounds were exposed to pure nitrogen, which served as the diluting gas for every mixture prepared. […]

[1] = tested on: burn, excisional and surgical incisional wounds; assay: Wound healing time in rat wound models (burn, excisional, incisional; normal and diabetic); type: in vivo; conditions: exogenous gas treatment
Protocol: (§2) Provided methods and apparatus were tested on second degree burn wounds (normal and diabetic), excisional wounds (normal and diabetic), and surgical incisional wounds (normal and diabetic) in rat models. Various treatment protocols were evaluated and dose and time dependent studies were carried out on normal excisional wounds to determine the [NO] and [ONOO^−] release profile using exogenous NO and CO.
It is believed that gasotransmitters NO, O2 and CO delivered locally to a wound site may influence the healing process via changing the NO/ONOO^− balance. […] As a result, there was a high formation of cytotoxic ONOO^−, which can contribute to wound healing impairment. Accordingly, wounds were exposed individually to either gaseous NO or CO using a modified gas delivery system surrounding an injured area. To determine the efficacy of gas therapy in restoring the NO/ONOO^− balance, treated wounds were subjected to NO and ONOO^− measurements. Also, eNOS and iNOS expression levels were determined using western blotting. Collagen formation and maturation, also wound contraction were investigated and compared to results of untreated wounds.

rat model of wound = type: in vivo
Protocol: In vivo efficiency of the provided gas delivery system in the process of accelerating wound healing was also tested. For these experiments, a rat model of wound was studied. Indexes of post-ischemic injury included: morphometric analysis, tissue edema, using a laser rate of wound healing process, level of collagen, and breaking strength.

normal excisional wounds = assay: Normal excisional wound: wound size after gas treatment; type: in vivo, rat; conditions: 1000 ppm NO or 250 ppm CO, 15 minutes four times per day; for wound area shrunk to % of initial: day 3; for wound size/area as % of its starting point: day 10
Protocol: as §2, §1
Once the rats were prepared with a modified gas delivery system in place, 20 cm^3 of nitrogen was purged through whole gas capsule to remove air. Then 20 cm^3 of a therapeutic gas mixture was delivered in a medical syringe to a gas vent, and the gas vent was sealed. The wounds were exposed to gas mixtures for specified period of times (15 minutes to 1 hour). The treatment was repeated four times a day, while the rat was awake and fully ambulatory. Negative control wounds remained uncovered, allowing access of air to the wound site. Positive control wounds were exposed to pure nitrogen, which served as the diluting gas for every mixture prepared.
After a specified time interval (1 day, 3 days, 5 days, 7 days, 10 days), rats were again anesthetized with a mixture of ketamine (50 mg/kg I.M.) and xylazine (5 mg/kg I.M.). The gas delivery system was removed by applying few drops of Uni-Solve® (Smith & Nephew Inc. Largo, Fla. 33773), which enabled the removal of the gas delivery system from the skin. Wounds were then removed using a 6 mm in diameter biopsy punch (Miltex, Inc. York, Pa. cat #33-36). Removed wounds were immediately used to measure the NO and ONOO^− release or frozen in liquid nitrogen to be later subjected to hydroxyproline analysis and western blot analysis or embedded in TBS Tissue Frizzing Medium for histological analysis. After the wounded tissue was removed, the rats were euthanized by injecting pentothal at a dose of 150 mg/kg. The rats were then placed in cold storage in an animal care facility.
In FIG. 9, depicted are changes in wound size of a normal excisional wound after treatment with either NO or CO. The photographs were taken at 1, 3, 5, 7 and 10 days after wounding. Normal excisional wounds were treated with either 1000 ppm NO or 250 ppm of CO gas mixtures for 15 minutes four times per day with at least an hour break between treatments. A marker 305 was placed next to each excisional wound to show the size/area of the original wound. […] A very rapid drop in wound area was observed between the 5th and 7th day of healing. […] At day 10, the wound area/size had decreased to 31%+/−5% of its initial starting point. […] At day 3, the area of the NO treated wound had shrunk to 58±4.9%, and the area of gCO treated wound had shrunk to 63±5.7%, whereas the area of untreated wound decreased to 81±6.1%. By day 10 NO treated wounds were much smaller than the untreated wounds and had decreased in size/area to 15%+/−3.8% of its starting point.

[2] = inhaled for over 30 min; cited from earlier work
[3] = tested on: diabetic type I excisional wounds; assay: Type I diabetes model: excisional wound contraction after gas treatment; type: in vivo, rat; conditions: for effect on diabetic wound contraction / wound area as % of its initial area / wound size as % of its starting point: 1000 ppm NO or 250 ppm CO, 15 minutes four times per day
Protocol: Male Sprague-Dawley rats (body weight 400-450 g) were used for these studies, were kept in an animal care facility for 48 h at 21° C. in a temperature controlled room with a 12 h light/dark cycle and 30-70% air-changed humidity. Animals were allowed unlimited access to regular chow food and drinking water. Diabetes type I was induced in rats by injection of streptozotocin (STZ) (65 mg/kg in pH 4.5 citrate buffer, IP). To relieve the pain associated with the intraperitoneal streptozotocin injection, rats were first put under deep anesthesia by injecting (ketamine 50 mg/kg IM, xylazine 5 mg/kg, IM). Anesthesia levels were checked by corneal reflex and toe pinch, and sustained by additional injections of the ketamine and xylazine mixture. After 10 days of streptozotocin injections the blood glucose levels were measured to determine if the rats could be considered diabetic. If the blood glucose level was above 300 mg/dL, the rat was considered diabetic. Rats were fasted overnight before the glucose level was measured. After injecting anesthesia, the tip of the tail was sterilized by wiping it with 70% alcohol. Approximately 2 mm of the tail was cut off to withdraw a sample of blood (35 μl), and the tip was compressed for 45-60 seconds to stop the bleeding.
The diabetic rats were then anesthetized (if needed) with a mixture of ketamine (50 mg/kg I.M.) and xylazine (5 mg/kg I.M.) administered intraperitoneally. Once anesthetized, hair was removed from the rats' backs using an electric razor and the backs of the rat were subsequently wiped with a 70% ethyl alcohol swab. On either side of the midline of the rat's back, four excision wounds were made with a sterile about 5 mm in diameter Biopsy Punch (Miltex, Inc. York, Pa. cat#33-35). The resulting wounds were approximately 4 mm deep and were deprived of epidermis, dermis and subcutaneous fat. Immediately after wounding, the gasket of an exemplary gas delivery system as disclosed herein was bonded to the skin area surrounding each treated wound by means of a thin layer of Skin-Bond® Cement (Smith & Nephew Inc. Largo, Fla. 33773).
After the surgery and during the recovery period from anesthesia, rats were turned from side to side to avoid pulmonary edema and to ensure unobstructed breathing. The rats were transferred to cages lined with sterile drape and contained moist food. To minimize any stress associated with pain, the rats were injected subcutaneously with analgesic (Butorphanol 1-2 mg/kg) every four hours for a maximum period of 2 days. Additionally, 1-2 ml of warm sterile saline/100 g of body weight was injected subcutaneously during the recovery period to prevent dehydration. Once the rats were completely awake, they were placed in cages with free access to food and drinking water. During the postoperative care period, rats were monitored for signs of infection, or self inflicted trauma. Additionally food and water intake was monitored. The diabetic rats were subjected to treatment as described below.
as §1, with “To calculate the concentrations of mixed gases, the following Equation 2 was applied: Cppm=Vc/(Vc+Vd)×10^6·ppm (2) where Vc is the target gas volume and Vd is the dilutant volume.” left out

[4] = about 50-1000 ppm NO, about 50-250 ppm CO, about 100% O2

Structure (SMILES)	effect on burn healing compared to untreated burn wound (2nd degree burn wounds)	increase of burn wound area (2nd degree burn wounds; day 10)	decreased wound healing time (versus control, untreated) [1]	wound healing in a single gas treatment (rat model of wound; [4])	effect on normal excisional wound contraction (normal excisional wounds)	wound area shrunk to % of initial (normal excisional wounds)	wound size/area as % of its starting point (normal excisional wounds)	concentration believed to be dangerous when inhaled [2]	effect on diabetic wound contraction [3]	wound area as % of its initial area ([3]; day 5)	wound size as % of its starting point ([3]; day 10)	increase of burn wound area (2nd degree burn wounds; day 3)	wound area as % of its initial area ([3]; day 7)	size difference between treated and untreated diabetic excisional wounds ([3]; day 10)	wound healing in a single gas treatment (rat model of wound; rat, in vivo)
[C-]#[O+] [CO, carbon monoxide]	reduced swelling and accelerated burn healing process	roughly 67.1%+/−3.5	at least 20%	good results	accelerated wound contraction and resulted in a significant decrease in wound size	63±5.7%	22.2%+/−3.3	higher than 1500 ppm	some influence on wound contraction	82.6±3.7%	41.4%+/−2.8				
[N]=O [NO, nitric oxide]	reduced swelling and accelerated burn healing process	roughly 58.0%+/−3.1	30-50%	good results	accelerated wound contraction and resulted in a significant decrease in wound size	58±4.9%	15%+/−3.8	> 500 ppm	accelerated wound contraction and stimulated wound repair		29.8%+/−2.5	76.3±4.2%	57.8±3.1%	~17%	
O=O [O2, Oxygen]															good results
